IC50 data for 19 molecules are collected here from ChEMBL document CHEMBL4020729, “Synthesis and evaluation of anti-plasmodial and cytotoxic activities of epoxyazadiradione derivatives” (Eur J Med Chem, 2017).

What all share (format): functional, cell-based
Experiment [1] concerns PANC-1. The experiment can be described thus: Antiproliferative activity against human PANC1 cells after 48 hrs by SRB assay. To be noted: PANC-1, 48 h.
In experiment [2] the test system is Plasmodium falciparum. The experiment can be described thus: Anti-plasmodial activity against chloroquine-resistant Plasmodium falciparum Dd2 infected in human erythrocytes after 50 hrs by SYBR green dye based fluorescence assay. To be noted: Dd2, 50 h.
For experiment [3], the system named is IMR-32. Kind of experiment: Antiproliferative activity against human IMR32 cells after 48 hrs by SRB assay. To be noted: IMR-32, 48 h.
The test system of experiment [4] is SiHa. The experiment can be described thus: Antiproliferative activity against human SiHa cells after 48 hrs by SRB assay. (In general: The SRB assay estimates cell density from bound dye.)
The test system of experiment [5] is MDA-MB-231. Kind of experiment: Antiproliferative activity against human MDA-MB-231 cells after 48 hrs by SRB assay. To be noted: MDA-MB-231, 48 h.
Experiment [6] relates to Plasmodium falciparum. The experiment can be described thus: Anti-plasmodial activity against chloroquine-sensitive Plasmodium falciparum 3D7 infected in human erythrocytes after 50 hrs by SYBR green dye based fluorescence assay. To be noted: 3D7, 50 h.

On to `CC(=O)O[C@@H]1C[C@H]2C(C)(C)C(=O)C=C[C@]2(C)[C@H]2CC[C@@]3(C)[C@H](c4ccoc4)/C(=N\OCc4cn(CC(=O)Nc5ccc(F)c(Cl)c5)nn4)[C@H]4O[C@]43[C@@]21C`, for which the IC50 in experiment [1] was over 100 µM; in experiment [2] it was 26 µM; in experiment [3] it was over 100 µM; in experiment [4] it was over 100 µM; in experiment [5], over 100 µM; in experiment [6], 32 µM.
Turning to `CC1(C)C(=O)C=C[C@]2(C)[C@H]3CC[C@@]4(C)[C@H](c5ccoc5)C(=O)[C@H]5O[C@]54[C@]3(C)[C@H](O)C[C@@H]12`, the IC50 in experiment [2] was 9.4 µM; in experiment [6] it was 11.4 µM.
Regarding `CC(=O)O[C@@H]1C[C@H]2C(C)(C)C(=O)C=C[C@]2(C)[C@H]2CC[C@@]3(C)[C@H](c4ccoc4)/C(=N\OCc4cn(-c5cc(Cl)c(Cl)cc5Cl)nn4)[C@H]4O[C@]43[C@@]21C`, the concentration for half-maximal inhibition (IC50) in experiment [1] was over 100 µM; in experiment [3] it was over 100 µM; in experiment [4], over 100 µM; in experiment [5], over 100 µM; in experiment [6], 2.3 µM.
`CC(=O)O[C@@H]1C[C@H]2C(C)(C)C(=O)CC[C@]2(C)[C@H]2CC[C@@]3(C)[C@H](c4ccoc4)C(=O)[C@H]4O[C@]43[C@@]21C`: the IC50 is over 100 µM in experiment [1]; over 100 µM in experiment [3]; over 100 µM in experiment [4]; 20.2 µM in experiment [5]; 7.5 µM in experiment [6].
In the case of `CC(=O)O[C@@H]1C[C@H]2C(C)(C)C(=O)C=C[C@]2(C)[C@H]2CC[C@@]3(C)[C@H](c4ccoc4)/C(=N\OC(=O)c4cccc([N+](=O)[O-])c4)[C@H]4O[C@]43[C@@]21C`, the IC50 was over 100 µM in experiment [1]; over 100 µM in experiment [3]; over 100 µM in experiment [4]; over 100 µM in experiment [5]; 28.6 µM in experiment [6].
On to `CC(=O)O[C@@H]1C[C@H]2C(C)(C)/C(=N/O)C=C[C@]2(C)[C@H]2CC[C@@]3(C)[C@H](c4ccoc4)/C(=N\O)[C@H]4O[C@]43[C@@]21C`, for which the IC50 in experiment [1] was over 100 µM; in experiment [3], over 100 µM; in experiment [4], over 100 µM; in experiment [5], 29.1 µM; in experiment [6], 31.4 µM.
Consider `CC1(C)C(=O)C2OC2[C@]2(C)[C@H]3CC[C@@]4(C)[C@H](c5ccoc5)C(=O)[C@H]5O[C@]54[C@]3(C)C(=O)C[C@@H]12` (stereo partly drawn), for which the IC50 in experiment [1] is over 100 µM; in experiment [3], over 100 µM; in experiment [4], over 100 µM; in experiment [5], over 100 µM; in experiment [6] it was 131 µM.
Regarding `CC(=O)O[C@@H]1C[C@H]2C(C)(C)C(O)CC[C@]2(C)[C@H]2CC[C@@]3(C)[C@H](c4ccoc4)C(O)[C@H]4O[C@]43[C@@]21C` (stereo partly drawn), the IC50 in experiment [1] was over 100 µM; in experiment [3], over 100 µM; in experiment [4] it was over 100 µM; in experiment [5] it was 15.9 µM; in experiment [6], 21.4 µM.
For the molecule `CC(=O)O[C@@H]1C[C@H]2C(C)(C)C(=O)C=C[C@]2(C)[C@H]2CC[C@@]3(C)[C@H](c4ccoc4)/C(=N\OC(=O)c4cc(Br)ccc4[N+](=O)[O-])[C@H]4O[C@]43[C@@]21C`, the IC50 in experiment [1] is over 100 µM; in experiment [3], over 100 µM; in experiment [4] it was over 100 µM; in experiment [5], over 100 µM; in experiment [6] it was 4.1 µM.
As for `CC(=O)O[C@@H]1C[C@H]2C(C)(C)C(=O)C=C[C@]2(C)[C@H]2CC[C@@]3(C)[C@H](c4ccoc4)/C(=N\OCc4cn(-c5ccc(Cl)cc5)nn4)[C@H]4O[C@]43[C@@]21C`, the IC50 in experiment [1] was over 100 µM; in experiment [3] it was over 100 µM; in experiment [4], over 100 µM; in experiment [5] it was 21.3 µM; in experiment [6] it was 2.9 µM.
For `CC(=O)O[C@@H]1C[C@H]2C(C)(C)C(=O)C3OC3[C@]2(C)[C@H]2CC[C@@]3(C)[C@H](c4ccoc4)C(=O)[C@H]4O[C@]43[C@@]21C` (stereo partly drawn), the IC50 in experiment [1] is over 100 µM; in experiment [3] it was over 100 µM; in experiment [4], over 100 µM; in experiment [5], 23.2 µM; in experiment [6], 15.5 µM.
For `CC(=O)O[C@@H]1C[C@H]2C(C)(C)C(=O)C(O)C(O)[C@]2(C)[C@H]2CC[C@@]3(C)[C@H](c4ccoc4)C(=O)[C@H]4O[C@]43[C@@]21C` (stereo partly drawn), the IC50 in experiment [1] was over 100 µM; in experiment [3], over 100 µM; in experiment [4], over 100 µM; in experiment [5] it was 29.9 µM; in experiment [6], 52.5 µM.
For the molecule `CCC(=O)O/N=C1/[C@H]2O[C@]23[C@@]2(C)[C@H](CC[C@@]3(C)[C@@H]1c1ccoc1)[C@@]1(C)C=CC(=O)C(C)(C)[C@@H]1C[C@H]2OC(C)=O`, the IC50 in experiment [1] is over 100 µM; in experiment [3] it was over 100 µM; in experiment [4], over 100 µM; in experiment [5], over 100 µM; in experiment [6], 9.3 µM.
For the molecule `CC(=O)O/N=C1/[C@H]2O[C@]23[C@@]2(C)[C@H](CC[C@@]3(C)[C@@H]1c1ccoc1)[C@@]1(C)C=CC(=O)C(C)(C)[C@@H]1C[C@H]2OC(C)=O`, the IC50 in experiment [1] is over 100 µM; in experiment [3] it was over 100 µM; in experiment [4] it was over 100 µM; in experiment [5] it was over 100 µM; in experiment [6], 9.3 µM.
For the molecule `COc1ccc(OC)c(/C=C/C(=O)O[C@@H]2C[C@H]3C(C)(C)C(=O)C=C[C@]3(C)[C@H]3CC[C@@]4(C)[C@H](c5ccoc5)C(=O)[C@H]5O[C@]54[C@@]32C)c1`, the IC50 was over 100 µM in experiment [1]; over 100 µM in experiment [3]; over 100 µM in experiment [4]; over 100 µM in experiment [5]; 8.8 µM in experiment [6].
For `CC(=O)O[C@@H]1C[C@H]2C(C)(C)C(=O)C=C[C@]2(C)[C@H]2CC[C@@]3(C)[C@H](c4ccoc4)C(O)[C@H]4O[C@]43[C@@]21C` (stereo partly drawn), the IC50 in experiment [1] is over 100 µM; in experiment [3], over 100 µM; in experiment [4] it was over 100 µM; in experiment [5], 47.8 µM; in experiment [6], 13.1 µM.
Regarding `C=CCCC(=O)O/N=C1/[C@H]2O[C@]23[C@@]2(C)[C@H](CC[C@@]3(C)[C@@H]1c1ccoc1)[C@@]1(C)C=CC(=O)C(C)(C)[C@@H]1C[C@H]2OC(C)=O`, the IC50 in experiment [1] was over 100 µM; in experiment [3], over 100 µM; in experiment [4], over 100 µM; in experiment [5], 55.8 µM; in experiment [6], 5.8 µM.
Consider `CC(=O)O[C@@H]1C[C@H]2C(C)(C)C(O)C=C[C@]2(C)[C@H]2CC[C@@]3(C)[C@H](c4ccoc4)C(O)[C@H]4O[C@]43[C@@]21C` (stereo partly drawn), for which the half-inhibitory concentration (IC50) is over 100 µM in experiment [1]; over 100 µM in experiment [3]; over 100 µM in experiment [4]; over 100 µM in experiment [5]; 35.5 µM in experiment [6].
Turning to `CC(=O)O[C@@H]1C[C@H]2C(C)(C)C(=O)C=C[C@]2(C)[C@H]2CC[C@@]3(C)[C@H](c4ccoc4)/C(=N\OCc4cn(-c5ccccc5C#N)nn4)[C@H]4O[C@]43[C@@]21C`, the IC50 is over 100 µM in experiment [1]; over 100 µM in experiment [3]; over 100 µM in experiment [4]; over 100 µM in experiment [5]; 1.7 µM in experiment [6].

The IC50 is the concentration that inhibits the measured activity by half.
